From patent US8669256B2, “Substituted thieno[2,3-b]pyrazine compounds as modulators of B-Raf kinase activity” (Merck Sharp & Dohme B.V., priority 2010, dated 2014)
Read-outs that look alike come from different tables or passages of the source.

Tests used:
[1] = target: T1, GST-tagged human recombinant active B-Raf (Δ1-415) (Homo sapiens, UniProt P15056); experiment: B-Raf kinase activity, IMAP coupled assay (B-Raf/MEK1/ERK2, fluorescence polarization); assay type: biochemical; conditions: bounds also given as pIC50 (>6, >7, >8); 60 min pre-incubation with compound, ATP 50 μM; read-out: IC50, B-Raf IMAP assay
T1 construct: GST; purchased Upstate/Millipore
How it was run: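 Coupled cascade: GST-B-Raf (Δ1-415; 0.2 U/ml) pre-incubated with compound (1% DMSO) 60 min at room temperature, then unactive MEK1 (64 ng/ml), unactive ERK2 (600 ng/ml), 50 nM fluorescein-Erktide and 50 μM ATP added for 60 min at 30 °C, pH 7.2 Tris buffer. Phosphopeptide captured on IMAP beads (60 min); fluorescence polarization read.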

[2] = tested on: phosphorylation of ERK1/2 in A375 cells containing mutant B-Raf (V600E); experiment: Phospho-ERK FACE assay in A375 (B-Raf mutated) melanoma cell line; assay type: cell-based; conditions: Homo sapiens, A-375, A375 cells, 2 hours incubation, read-out: IC50, A375 melanoma phospho-ERK assay
How it was run: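 A375 cells (B-Raf V600E), serum-starved overnight in 0.1% FBS, exposed to compounds for 2 hours at 37° C (1% DMSO). Fixed cells probed with anti-phospho-ERK1/2 (Thr202/Tyr204, Thr185/Tyr187) antibody overnight at 4° C, total ERK on a separate plate. HRP-secondary chemiluminescence read-out.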

[3] = between 1 μM and 100 nM (6<pIC50<7)

T1 sequence (P15056 416-766, stated change not applied): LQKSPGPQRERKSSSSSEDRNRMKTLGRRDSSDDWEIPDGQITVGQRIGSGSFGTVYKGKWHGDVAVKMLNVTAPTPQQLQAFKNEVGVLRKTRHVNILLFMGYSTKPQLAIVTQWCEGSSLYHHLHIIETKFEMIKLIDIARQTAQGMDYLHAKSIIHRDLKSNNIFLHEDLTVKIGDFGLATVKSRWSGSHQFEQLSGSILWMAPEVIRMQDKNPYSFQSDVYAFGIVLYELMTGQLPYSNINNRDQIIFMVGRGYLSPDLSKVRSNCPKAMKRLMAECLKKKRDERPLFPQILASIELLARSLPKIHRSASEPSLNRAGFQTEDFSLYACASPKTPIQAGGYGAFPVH

SMILES | IC50 [1] [nM] | IC50 ([2]; class given as below 100 nM (pIC50>7)) [nM] | IC50 [2, 3] [nM]
Cc1ccc(NC(=O)c2cccc(C(C)(C)C#N)c2)cc1NC(=O)c1cc2ncc(-c3ccncc3)nc2s1 [Example 69, N-(5-(3-(2-cyanopropan-2-yl)benzamido)-2-methylphenyl)-3-(pyridin-4-yl)thieno[2,3-b]pyrazine-6-carboxamide] | < 10 | < 100 | –
Cc1cnc2cc(C(=O)Nc3cc(NC(=O)c4cccc(C(C)(C)C#N)c4)ccc3C)sc2n1 [Example 70, N-(5-(3-(2-cyanopropan-2-yl)benzamido)-2-methylphenyl)-3-methylthieno[2,3-b]pyrazine-6-carboxamide] | < 100 | – | 100 to 1000
Cc1ccc(NC(=O)c2cccc(C(C)(C)C#N)c2)cc1C(=O)Nc1cc2nccnc2s1 [Example 73, 5-(3-(2-cyanopropan-2-yl)benzamido)-2-methyl-N-(thieno[2,3-b]pyrazin-6-yl)benzamide] | < 100 | – | 100 to 1000
